PMC10499324, “The differing effects of a dual acting regulator on SIRT1” (Frontiers in Molecular Biosciences, 2023)
Values joined by “and” are separate entries in the source; they are usually repeats but may differ in a detail not shown here. Equal entries are not always repeated. Where no end group is shown, it is not given here.

Experiments:
hSIRT1-143 [1] = target: T1, hSIRT1-143 (Homo sapiens, UniProt Q96EB6); assay: Enzyme-coupled continuous SIRT1 deacetylase kinetics assay (Michaelis-Menten); format: biochemical; details: for K M / k cat / k cat/K M: peptide as substrate, without resveratrol
T1 construct: Schematic of SIRT1-143 design, consisting of residues 143–512 and the region 641–665; SUMO (smt3) (N, cleaved yes); His tag (N, cleaved yes); made in house; host or cells: E. coli BL21 (DE3)
T1 sequence (Q96EB6 143-512 limits assumed): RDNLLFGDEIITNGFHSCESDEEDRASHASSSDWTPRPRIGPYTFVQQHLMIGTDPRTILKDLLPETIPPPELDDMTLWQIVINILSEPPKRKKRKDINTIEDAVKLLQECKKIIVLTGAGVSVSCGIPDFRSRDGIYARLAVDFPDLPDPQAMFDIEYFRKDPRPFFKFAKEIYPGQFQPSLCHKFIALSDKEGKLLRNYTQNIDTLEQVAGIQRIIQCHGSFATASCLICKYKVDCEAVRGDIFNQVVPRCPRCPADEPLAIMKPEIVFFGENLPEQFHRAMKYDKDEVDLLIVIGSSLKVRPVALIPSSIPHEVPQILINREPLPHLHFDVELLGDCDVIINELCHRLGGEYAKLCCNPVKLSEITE
T1 sequence (Q96EB6 641-665 limits assumed): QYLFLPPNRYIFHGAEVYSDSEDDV
Method: Assays were conducted in accordance with a prior publication ([Smith et al., 2009]). Peptide substrates were 11 or 13-mer peptides with acetylated lysine at the middle residue position, synthesized and purified by Elim BioPharm (Hayward, CA) to a purity of 90%. The following reagents were used in the assay mixtures: 5–640 μM peptide substrate, 640 μM NAD^+, 2 mM MPB-PncA (nicotinamidase), 20 mM phosphate buffer pH 7.6, 3 mM α-ketoglutarate, 1 mM DTT, 0.2 mM NADPH, and 6.7 units of glutamate dehydrogenase. Then, 0.2–1 μM of the SIRT1 enzyme was added to start the reactions. SIRT1 reactions were conducted in a transparent, flat-bottomed, 96-well plate with a final volume of 150 μL per well and read with a BioTek™ Synergy HTX Multimode Reader. […] After SIRT1 was added, absorbance at 340 nm was measured to quantify the rate of NADPH depletion for a duration of 10 min. Initial rates of the reaction were calculated using 6.22 mM^-1cm^-1 as the extinction coefficient for NADPH and fitting the slope of the linear component of the reaction. The initial velocity of the reaction absent the peptide substrate, which served as a background control, was subtracted from the initial velocities of all other reactions. By fitting the initial rate data to the Michaelis-Menten equation in GraphPad Prism, the values for k cat and K M were obtained.

hSIRT1-143 [2] = target: T1, hSIRT1-143; assay: Differential scanning fluorimetry (SYPRO Orange) thermal stability of SIRT1 complexes; format: binding; details: 200 μM resveratrol
Method: Differential Scanning Fluorimetry experiments were performed in a 384-well plate using a qTOWER real-time PCR thermal cycler (Analytik Jena). Fluorescence intensity was measured in the TAMRA channel (Ex: 535 nm Em: 580 nm) over a period of 1 h with a 1°C increase temperature ramp per cycle in “Normal” mode. […] 1:100 SYPRO® Orange (Millipore) dye diluted in buffer was also added to each well. All measurements were performed in triplicate, with buffer-only controls containing ADPr, resveratrol, and peptide performed for all conditions. Tma was calculated using the first derivative method and fitting a Lorentzian distribution to the first derivative curve (Tma = center of curve/inflection point) in GraphPad Prism ([Wu et al., 2020]).

hSIRT1-143 [3] = target: T1, hSIRT1-143; assay: Small angle X-ray scattering (SAXS) of SIRT1 complexes; details: for Rg / Rxs: + 200 μM resveratrol; for Δ Rg / Δ Rxs: + vs - 200 μM resveratrol; on Rg: values in Å; on Rxs: values in Å
Method: SAXS samples were prepared with 40 μM of hSIRT1-143 in storage buffer (50 mM Tris pH 8.0, 150 mM NaCl, 1 mM DTT). All samples contained 640 μM of NAD^+ analog ADPr (adenosine diphosphate ribose) except for the apo SIRT1 sample. Varying concentrations of different peptide substrates (500–5,000 μM) were added to the different samples. The concentration of peptide substrate added was determined based on previous kinetics assays to ensure that SIRT1 is mostly saturated with the peptide.
With an X-ray wavelength of 1.216 Å and a sample-to-detector distance of 2070 mm, the scattering vector, q, varied from 0.01 to 0.45. Where 2θ is the scattering angle, the scattering vector is defined as q = 4π sin θ/λ. The experiments were conducted at a temperature of 20°C. The sample was placed for 10 s with the detector framing at 0.3 s to optimize the signal using the SAXS FrameSlice program (https://bl1231.als.lbl.gov/ran). ATSAS 3.0 Primus software was utilized to plot and analyze the combined SAXS ([Manalastas-Cantos et al., 2021]).

hSIRT1-143 [4] = target: T1, hSIRT1-143; assay: Differential scanning fluorimetry (SYPRO Orange) thermal stability of SIRT1 complexes; format: binding; details: SIRT1•ADPr•Ac-H3; 200 μM resveratrol; single data set
[5] = towards Ac-p53W, 200 μM resveratrol

Compound: Oc1ccc(/C=C/c2cc(O)cc(O)c2)cc1 [resveratrol]
- increases in K M (hSIRT1-143 [1]; towards Ac-p53, Ac-H4, Ac-H3 and Ac-CSNK, 200 μM resveratrol): 2-6 fold
- decrease in K M (hSIRT1-143 [1]; [5]): 2 fold
- increase of overall SIRT1 activity (k cat/K M) (hSIRT1-143 [1]; [5]): 2 fold
- effect on k cat values (hSIRT1-143 [1]; towards any of the peptide substrates, 200 μM resveratrol): did not have significant effects
- decrease of Tma (hSIRT1-143 [2]; SIRT1 in complex with ADPr): 0.2 °C
- decrease of melting temperature (hSIRT1-143 [2]; SIRT1•ADPR•Ac-p53W complex): 1 °C
- Tma + res (hSIRT1-143 [2]; SIRT1•ADPr): 49.9 ± 0.44 °C
- Tma + res (hSIRT1-143 [2]; SIRT1•ADPr•Ac-CSNK): 46.0 ± 0.94 °C
- Tma + res (hSIRT1-143 [2]; SIRT1•ADPr•Ac-H4): 46.5 ± 1.49 °C
- Tma + res (hSIRT1-143 [2]; SIRT1•ADPr•Ac-p53): 48.2 ± 0.54 °C
- Tma + res (hSIRT1-143 [2]; SIRT1•ADPr•Ac-p53W): 49.5 ± 0.46 °C
- Tma + res (hSIRT1-143 [2]; apo SIRT1): 49.4 ± 0.48 °C
- decrease of Tma (hSIRT1-143 [2]; apo SIRT1): 1.7 °C
- Rg (hSIRT1-143 [3]; SIRT1•ADPr): 35.45 Å
- Rxs (hSIRT1-143 [3]; SIRT1•ADPr): 14.19 Å
- Δ Rg (hSIRT1-143 [3]; SIRT1•ADPr): 1.7%
- Δ Rxs (hSIRT1-143 [3]; SIRT1•ADPr): 39.9%
- Rg (hSIRT1-143 [3]; SIRT1•ADPr•Ac-CSNK): 33.87 Å
- Rxs (hSIRT1-143 [3]; SIRT1•ADPr•Ac-CSNK): 12.67 Å
- Δ Rg (hSIRT1-143 [3]; SIRT1•ADPr•Ac-CSNK): 4.9%
- Rg (hSIRT1-143 [3]; SIRT1•ADPr•Ac-H3): 35.94 Å
- Rxs (hSIRT1-143 [3]; SIRT1•ADPr•Ac-H3): 12.42 Å
- Δ Rg (hSIRT1-143 [3]; SIRT1•ADPr•Ac-H3): 3.1%
- Rg (hSIRT1-143 [3]; SIRT1•ADPr•Ac-H4): 36.99 Å
- Rxs (hSIRT1-143 [3]; SIRT1•ADPr•Ac-H4): 13.7 Å
- Δ Rg (hSIRT1-143 [3]; SIRT1•ADPr•Ac-H4): 7.3%
- Rg (hSIRT1-143 [3]; SIRT1•ADPr•Ac-p53): 34.92 Å
- Rxs (hSIRT1-143 [3]; SIRT1•ADPr•Ac-p53): 14.37 Å
- Δ Rg (hSIRT1-143 [3]; SIRT1•ADPr•Ac-p53): 9.2%
- Rg (hSIRT1-143 [3]; SIRT1•ADPr•Ac-p53W): 36.91 Å
- Rxs (hSIRT1-143 [3]; SIRT1•ADPr•Ac-p53W): 13.86 Å
- Δ Rg (hSIRT1-143 [3]; SIRT1•ADPr•Ac-p53W): 9% and 8.9%
- Δ Rxs (hSIRT1-143 [3]; SIRT1•ADPr•Ac-p53W): 7% and 6.9%
- Rg (hSIRT1-143 [3]; apo SIRT1): 32.26 Å
- Rxs (hSIRT1-143 [3]; apo SIRT1): 11.26 Å
- Δ Rg (hSIRT1-143 [3]; apo SIRT1): 6.3%
- Δ Rxs (hSIRT1-143 [3]; apo SIRT1): 9.7%
- Tma + res (hSIRT1-143 [4]): 46.3 ± 0.55 °C

Compound: ^2ASSSGSK^AcAEFIVG^14 (ASSSGSK(Ac)AEFIVG; UniProt P48729 2-14, looked up, fragment) [Ac-CSNK, 13-mer SIRT1 peptide substrate with acetylated lysine, casein kinase 1 alpha 1 (K8)]
- K M (hSIRT1-143 [1]): 78 ± 2.2 µM
- k cat (hSIRT1-143 [1]): 0.06 ± 0.002 s⁻¹
- k cat/K M (hSIRT1-143 [1]): 0.0007 ± 0.0002 µM⁻¹ s⁻¹

Compound: ^3VRGKAGK^AcGLGKGG^15 [Ac-H4]
- K M (hSIRT1-143 [1]): 108 ± 5.5 µM
- k cat (hSIRT1-143 [1]): 0.09 ± 0.006 s⁻¹
- k cat/K M (hSIRT1-143 [1]): 0.001 ± 0.0004 µM⁻¹ s⁻¹

Compound: ^9KSTGGK^AcAPRKQ^19 [Ac-H3]
- K M (hSIRT1-143 [1]): 121 ± 12.6 µM
- k cat (hSIRT1-143 [1]): 0.06 ± 0.009 s⁻¹
- k cat/K M (hSIRT1-143 [1]): 0.0005 ± 0.0003 µM⁻¹ s⁻¹

Compound: ^376STSRHKK^AcLMFKTE^388 (STSRHKK(Ac)LMFKTE; UniProt P04637 376-388, looked up, fragment) [Ac-p53, 13-mer SIRT1 peptide substrate with acetylated lysine, p53(K382)]
- K M (hSIRT1-143 [1]): 25 ± 0.2 µM
- k cat (hSIRT1-143 [1]): 0.08 ± 0.009 s⁻¹
- k cat/K M (hSIRT1-143 [1]): 0.003 ± 0.00003 µM⁻¹ s⁻¹

Compound: ^376STSRHKK^AcWMFKTE^389 [Ac-p53W]
- K M (hSIRT1-143 [1]): 13 ± 1.4 µM
- k cat (hSIRT1-143 [1]): 0.06 ± 0.001 s⁻¹
- k cat/K M (hSIRT1-143 [1]): 0.005 ± 0.0005 µM⁻¹ s⁻¹
